Results: patent US6410792B1, “Amide derivatives and methods for using the same as selective neuropeptide Y receptor antagonists” (Bayer Corporation, priority 1997, dated 2002)

Tests used:
Y2 receptor = biological target: T1, Y2 receptor (Homo sapiens, UniProt P49146); test: Y2 receptor binding assay ([125I]PYY, membrane protein); settings: [125I]PYY, membrane protein; read-out: hNPY2 IC50
T1 sequence (P49146 1-381): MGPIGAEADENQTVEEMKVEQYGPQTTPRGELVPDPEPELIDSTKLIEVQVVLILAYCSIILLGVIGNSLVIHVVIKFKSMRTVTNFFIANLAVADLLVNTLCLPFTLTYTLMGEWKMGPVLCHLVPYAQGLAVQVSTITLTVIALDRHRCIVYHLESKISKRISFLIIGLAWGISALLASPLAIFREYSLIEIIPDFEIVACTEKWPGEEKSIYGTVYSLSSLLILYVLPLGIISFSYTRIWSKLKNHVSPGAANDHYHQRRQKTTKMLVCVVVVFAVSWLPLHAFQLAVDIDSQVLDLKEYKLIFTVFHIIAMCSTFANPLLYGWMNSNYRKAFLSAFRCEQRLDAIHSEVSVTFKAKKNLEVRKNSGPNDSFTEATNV
Procedure, shortened: (§1)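 Filtration binding with membrane protein and drug dilution, 2 h at room temperature with mixing, radioactivity counted by gamma or scintillation. Y2: 25 pM [125I]PYY in Krebs-Ringer bicarbonate pH 7.4 with 0.01% BSA, nonspecific by 1 μM NPY. Y4/PP1: 50 pM [125I]hPP in HEPES-buffered saline pH 7.4 with protease inhibitors and 0.3% BSA, nonspecific by 1 μM hPP.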

human Y4/PP1 receptor = human Y4/PP1 receptor (Homo sapiens, UniProt P50391); test: Human Y4/PP1 receptor binding assay ([125I]human PP, membrane protein); settings: [125I]human PP, membrane protein; read-out: hNPY4 IC50
Sequence of human Y4/PP1 receptor (P50391 whole entry): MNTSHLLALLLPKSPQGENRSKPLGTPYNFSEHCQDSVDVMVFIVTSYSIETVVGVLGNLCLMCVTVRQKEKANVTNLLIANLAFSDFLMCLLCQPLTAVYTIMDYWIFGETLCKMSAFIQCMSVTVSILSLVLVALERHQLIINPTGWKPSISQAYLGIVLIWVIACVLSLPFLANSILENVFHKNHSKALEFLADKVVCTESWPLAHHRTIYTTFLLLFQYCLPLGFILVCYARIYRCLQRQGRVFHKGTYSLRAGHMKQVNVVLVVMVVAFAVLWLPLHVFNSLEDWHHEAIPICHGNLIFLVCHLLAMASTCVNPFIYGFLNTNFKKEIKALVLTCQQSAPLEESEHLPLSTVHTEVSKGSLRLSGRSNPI
Procedure, shortened: as §1

Human NPY5 receptor = biological target: T2, Human NPY5 receptor (Homo sapiens, UniProt Q15761); test: Human NPY5 receptor binding assay ([125I]PYY, membrane protein); settings: [125I]PYY, read-out: hNPY5 IC50
T2 sequence (Q15761 1-445): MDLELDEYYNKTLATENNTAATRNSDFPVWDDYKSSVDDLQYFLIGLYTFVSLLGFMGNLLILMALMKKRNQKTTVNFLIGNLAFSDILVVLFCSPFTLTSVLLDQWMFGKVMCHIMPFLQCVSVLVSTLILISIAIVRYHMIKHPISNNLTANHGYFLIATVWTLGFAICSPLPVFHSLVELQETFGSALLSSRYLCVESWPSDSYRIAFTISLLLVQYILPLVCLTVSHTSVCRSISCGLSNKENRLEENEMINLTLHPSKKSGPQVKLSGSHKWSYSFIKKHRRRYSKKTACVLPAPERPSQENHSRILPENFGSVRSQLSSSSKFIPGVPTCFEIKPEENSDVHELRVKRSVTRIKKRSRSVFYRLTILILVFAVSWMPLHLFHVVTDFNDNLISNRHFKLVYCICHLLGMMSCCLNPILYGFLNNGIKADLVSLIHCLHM
Procedure, shortened: (§2)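 Radioligand displacement: 75-100 pM [125I]PYY (porcine), membranes, drug dilution; 2 h, RT, mixing; 25 mM Tris pH 7.4 with 0.1% BSA, 0.5 mg/ml bacitracin. NSB 1 μM PYY. Filtration on PEI-treated GF/C, ice-cold buffer wash, gamma or scintillation counting.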

Human NPY1 receptor = biological target: T3, Human NPY1 receptor (Homo sapiens, UniProt P25929); test: Human NPY1 receptor binding assay ([125I]PYY, SK-N-MC cells); settings: [125I]PYY, SK-N-MC cells; read-out: hNPYI IC50
T3 construct: host or cells: SK-N-MC cells
T3 sequence (P25929 1-384): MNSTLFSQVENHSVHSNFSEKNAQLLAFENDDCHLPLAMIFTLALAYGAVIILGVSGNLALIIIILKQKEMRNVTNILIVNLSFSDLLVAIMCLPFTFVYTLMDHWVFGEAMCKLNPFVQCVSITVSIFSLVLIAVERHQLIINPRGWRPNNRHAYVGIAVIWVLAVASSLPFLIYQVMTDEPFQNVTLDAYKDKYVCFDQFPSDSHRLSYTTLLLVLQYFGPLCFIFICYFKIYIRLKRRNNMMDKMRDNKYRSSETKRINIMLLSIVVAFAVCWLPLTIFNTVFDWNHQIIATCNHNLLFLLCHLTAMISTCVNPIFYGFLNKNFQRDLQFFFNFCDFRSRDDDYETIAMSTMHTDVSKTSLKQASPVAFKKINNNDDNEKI
Method: A. Human NPY1 Receptor Binding Assay
This is a modification of Gordon et al., (J. Neurochem. 55:506-513, 1990). SK-N-MC cell (ATCC, Rockville, Md.) were plated in 24-well plates. Once confluent, cells were rinsed with Dulbecco's phosphate buffered saline (DPBS). Cells were then preincubated in binding buffer containing serum-free DMEM, 25 mM HEPES (pH 7.3), 0.5% bovine serum albumin (BSA), 0.1% bacitracin and 0.1 mM phenylmethylsulfonylfluoride for 30 minutes at room temperature. Drug dilution and [125I]PYY (˜50 pM: NEN-DuPont) were added to the wells, and the cells were incubated for an additional 3 hours at room temperature, followed by rinsing with ice-cold DPBS. Nonspecific binding was defined with 1 μM NPY. After lysing the cells with 1% Triton X-100, the amount of radioactivity in the lysates was quantitated with a gamma counter.

Rat NPY5 receptor = biological target: T4, Rat NPY5 receptor (Rattus norvegicus, UniProt Q63634); test: Rat NPY5 receptor binding assay ([125I]PYY, membrane protein); settings: [125I]PYY, read-out: rNPY5 IC50
T4 sequence (Q63634 1-445): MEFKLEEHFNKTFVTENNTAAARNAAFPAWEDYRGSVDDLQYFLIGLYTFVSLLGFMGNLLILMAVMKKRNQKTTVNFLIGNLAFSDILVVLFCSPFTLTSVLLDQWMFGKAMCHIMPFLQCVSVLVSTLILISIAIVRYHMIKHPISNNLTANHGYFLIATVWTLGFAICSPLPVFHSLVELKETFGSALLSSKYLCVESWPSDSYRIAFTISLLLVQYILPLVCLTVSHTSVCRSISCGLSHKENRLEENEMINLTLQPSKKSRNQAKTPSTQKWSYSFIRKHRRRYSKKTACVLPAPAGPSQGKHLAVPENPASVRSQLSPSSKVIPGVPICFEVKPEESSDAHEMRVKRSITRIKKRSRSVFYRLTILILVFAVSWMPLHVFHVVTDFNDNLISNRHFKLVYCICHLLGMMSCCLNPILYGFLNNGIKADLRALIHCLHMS
Procedure, shortened: as §2

Compound	melting point [°C]	IC50 (Y2 receptor) [µM]	IC50 (human Y4/PP1 receptor) [µM]	IC50 (Human NPY5 receptor) [µM]	IC50 (Human NPY1 receptor) [µM]	IC50 (Rat NPY5 receptor) [µM]
O=C(CN1CCC(n2c(=O)[nH]c3ccccc32)CC1)NCC1CCCO1 (stereo not shown) [Compound 285, 2-[4-(2-Oxo-2,3-dihydro-benzoimidazol-1-yl)-piperidin-1-yl]-N-(tetrahydro-furan-2-ylmethyl)-acetamide]	179 to 180	> 5	> 5	–	–	–
O=C(CN1CCC(n2c(=O)[nH]c3ccccc32)CC1)Nc1ccc(Cc2ccccc2)cc1 [Compound 258, N-(4-Benzyl-phenyl)-2-[4-(2-oxo-2,3-dihydro-benzoimidazol-1-yl)-piperidin-1-yl]-acetamide]	182 to 183	> 5	> 5	0.1	> 5	–
Cl.O=C(CN1CCC(n2c(=O)[nH]c3ccccc32)CC1)Nc1cccc2c1C(=O)c1ccccc1-2 [Compound 307, 2-[4-(2-Oxo-2,3-dihydro-benzoimidazol-1-yl)-piperidin-1-yl]-N-(9-oxo-9H-fluoren-1-yl)-acetamide; hydrochloride]	204	> 5	> 5	–	–	–
CC(C)OCCCNC(=O)CN1CCC(n2c(=O)[nH]c3ccccc32)CC1 [Compound 289, N-(3-Isopropoxy-propyl)-2-[4-(2-oxo-2,3-dihydro-benzoimidazol-1-yl)-piperidin-1-yl]-acetamide]	67 to 68	–	–	–	–	–
Cl.O=C(CN1CCC(C(=O)c2ccc(F)cc2)CC1)Nc1ccc(C2CCCCC2)cc1 [Compound 292, N-(4-Cyclohexyl-phenyl)-2-[4-(4-fluoro-benzoyl)-piperidin-1-yl]-acetamide; hydrochloride]	258	> 5	> 5	0.11	–	0.084
O=C(CN1CCC(n2c(=O)[nH]c3ccccc32)CC1)N1CCCCCC1 [Compound 309, 1-[1-(2-Azepan-1-yl-2-oxo-ethyl)-piperidin-4-yl]-1,3-dihydro-benzoimidazol-2-one]	166	> 5	> 5	–	–	–
Cl.O=C(CN1CCC(n2c(=O)[nH]c3ccccc32)CC1)N1CCCCCCC1 [Compound 305, 1-[1-(2-Azocan-1-yl-2-oxo-ethyl)-piperidin-4-yl]-1,3-dihydro-benzoimidazol-2-one; hydrochloride]	158	> 5	> 5	–	–	–
O.O=C(CN1CCC(n2c(=O)[nH]c3ccccc32)CC1)Nc1ccc(-c2cnco2)cc1 (hydrate or solvate) [Compound 267, N-(4-Oxazol-5-yl-phenyl)-2-[4-(2-oxo-2,3-dihydro-benzoimidazol-1-yl)-piperidin-1-yl]-acetamide; hydrate]	177 to 178	–	–	–	–	–
O=C(CN1CCC(n2c(=O)[nH]c3ccccc32)CC1)Nc1ccc2c(c1)Cc1ccccc1-2 [Compound 325, N-(9H-Fluoren-2-yl)-2-[4-(2-oxo-2,3-dihydro-benzoimidazol-1-yl)-piperidin-1-yl]-acetamide]	–	> 5	> 5	0.006	> 5	0.004
O=C(CN1CCC(n2c(=O)[nH]c3ccccc32)CC1)NC1CCCC1.O=C(O)C(=O)O [Compound 288, N-Cyclopentyl-2-[4-(2-oxo-2,3-dihydro-benzoimidazol-1-yl)-piperidin-1-yl]-acetamide; compound with oxalic acid]	217 to 218	> 5	> 5	–	–	–
CN(C)c1ccc(NC(=O)CN2CCC(n3c(=O)[nH]c4ccccc43)CC2)cc1 [Compound 353, N-(4-Dimethylamino-phenyl)-2-[4-(2-oxo-2,3-dihydro-benzoimidazol-1-yl)-piperidin-1-yl]acetamide, reference compound]	–	> 5	> 5	0.135	> 5	0.187
